The values below come from patent US9376387B2 (priority 2013, dated 2016).

Test [1] has as its target T1, hAChE (human erythrocyte membranes as a AChE source) (Homo sapiens, UniProt P22303).
T1 construct: human erythrocyte membranes as a AChE source; from tissue; host or cells: human erythrocyte membranes
Put plainly: acetylcholinesterase (AChE) activity, modified Ellman method. The settings on record: acetylthiocholine iodide substrate, pH=7.4. Format: biochemical.

A further test deals with EqBuChE (Equus caballus, UniProt P81908). Put plainly: biochemical.
[2] abbreviates: hAChE IC50, modified Ellman method.

Where two headings read alike, the source gives them in different places.

T1 sequence (P22303 32-617 isoform P22303-2 limits assumed): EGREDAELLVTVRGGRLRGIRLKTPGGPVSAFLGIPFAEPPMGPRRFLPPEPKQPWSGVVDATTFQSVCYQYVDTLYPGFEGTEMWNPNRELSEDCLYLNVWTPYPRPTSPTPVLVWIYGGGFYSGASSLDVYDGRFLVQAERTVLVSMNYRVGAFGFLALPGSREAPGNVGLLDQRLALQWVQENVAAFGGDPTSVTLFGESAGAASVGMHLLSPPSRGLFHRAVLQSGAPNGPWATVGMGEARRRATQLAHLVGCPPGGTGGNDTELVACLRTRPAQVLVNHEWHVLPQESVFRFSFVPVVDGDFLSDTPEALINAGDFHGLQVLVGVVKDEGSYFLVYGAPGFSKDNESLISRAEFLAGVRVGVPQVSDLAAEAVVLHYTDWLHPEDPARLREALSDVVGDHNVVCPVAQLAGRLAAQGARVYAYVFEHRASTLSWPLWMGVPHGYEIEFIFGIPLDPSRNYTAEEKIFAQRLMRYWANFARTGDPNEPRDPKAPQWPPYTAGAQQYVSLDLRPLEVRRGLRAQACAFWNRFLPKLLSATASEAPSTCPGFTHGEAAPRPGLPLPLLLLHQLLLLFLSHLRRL
Chain of EqBuChE (P81908 whole entry): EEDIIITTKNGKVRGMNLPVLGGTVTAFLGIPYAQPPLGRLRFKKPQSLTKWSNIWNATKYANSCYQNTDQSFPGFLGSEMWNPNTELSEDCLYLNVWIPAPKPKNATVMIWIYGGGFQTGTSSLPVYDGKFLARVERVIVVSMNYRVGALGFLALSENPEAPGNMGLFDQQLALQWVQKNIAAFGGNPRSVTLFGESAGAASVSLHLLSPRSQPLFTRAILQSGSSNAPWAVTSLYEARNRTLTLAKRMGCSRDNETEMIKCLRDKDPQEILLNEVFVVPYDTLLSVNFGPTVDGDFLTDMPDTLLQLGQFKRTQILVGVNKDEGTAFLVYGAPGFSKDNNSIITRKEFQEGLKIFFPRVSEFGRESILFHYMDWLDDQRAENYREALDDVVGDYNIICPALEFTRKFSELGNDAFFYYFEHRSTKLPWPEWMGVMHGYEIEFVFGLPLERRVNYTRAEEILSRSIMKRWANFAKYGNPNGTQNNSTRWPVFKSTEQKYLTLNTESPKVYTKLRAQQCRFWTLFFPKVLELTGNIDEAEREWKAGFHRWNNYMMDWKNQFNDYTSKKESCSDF

For the compound `COc1ccc2c(c1)CCC(Cc1cc[n+](Cc3ccccc3C)cc1C(C)=O)C2=O` (stereo not drawn) [Compound 121, 2-[[3-acetyl-1-(o-tolylmethyl)pyridin-1-ium-4-yl]methyl]-6-methoxy-tetralin-1-one bromide], the IC50 in test [1] (setting [2]) came out at 10 nM; at EqBuChE (EqBuChE IC50) it was 433 nM.

Turning to `COc1ccc2c(c1)CCC(Cc1cc[n+](Cc3ccc(F)cc3)cc1C(C)=O)C2=O` (stereo not drawn) [Compound 129, 2-[[3-acetyl-1-[(4-fluorophenyl)methyl]pyridin-1-ium-4-yl]methyl]-6-methoxy-tetralin-1-one bromide], the figures for the half-inhibitory concentration (IC50) (in test [1] (setting [2]); at EqBuChE (EqBuChE IC50)) were 141 nM and 171 nM, respectively.

`COc1ccc2c(c1)CCC(Cc1cc[n+](Cc3cccc(C)c3)cc1C(C)=O)C2=O` (stereo not drawn) [Compound 120, 2-[[3-acetyl-1-(m-tolylmethyl)pyridin-1-ium-4-yl]methyl]-6-methoxy-tetralin-1-one bromide]: the IC50 in test [1] (setting [2]) amounted to 110 nM; against EqBuChE (EqBuChE IC50) it was 596 nM.

`COc1ccc2c(c1)CC(Cc1cc[n+](Cc3ccccc3C)cc1C(C)=O)C2=O` (stereo not drawn) [Compound 138, 2-[[3-acetyl-1-(o-tolylmethyl)pyridin-1-ium-4-yl]methyl]-5-methoxy-indan-1-one bromide]: the results for the IC50 (in test [1] (setting [2]); at EqBuChE (EqBuChE IC50)) were 30 nM and 2990 nM, respectively.

For the compound `COc1cc2c(cc1OC)C(=O)C(Cc1cc[n+](Cc3cccc(Cl)c3)cc1C(C)=O)C2` (stereo not drawn) [Compound 144, 2-[[3-acetyl-1-[(3-chlorophenyl)methyl]pyridin-1-ium-4-yl]methyl]-5,6-dimethoxy-indan-1-one bromide], the IC50 was determined as 3.2 nM in test [1] (setting [2]) and 3340 nM against EqBuChE (EqBuChE IC50).

Take `CC(=O)C1=CN(Cc2ccccc2C)C=CC1CC1Cc2cc(C)c(C)cc2C1=O` (stereo not drawn) [Compound 166, 2-[[3-acetyl-1-(o-tolylmethyl)-4H-pyridin-4-yl]methyl]-5,6-dimethyl-indan-1-one]: the IC50 turned out to be 653 nM in test [1] (setting [2]) and 1260 nM against EqBuChE (EqBuChE IC50).

For `COc1cc2c(cc1OC)C(=O)C(Cc1cc[n+](Cc3ccccc3)cc1Br)C2` (stereo not drawn) [Compound 145, 2-[(1-benzyl-3-bromo-pyridin-1-ium-4-yl)methyl]-5,6-dimethoxy-indan-1-one bromide], the IC50 in test [1] (modified Ellman method, read-out: hAChE IC50) was determined as 0.36 nM; at EqBuChE (read-out: EqBuChE IC50), 1790 nM.

For the compound `COc1ccc2c(c1)CCC(Cc1cc[n+](Cc3ccccc3)cc1Br)C2=O` (stereo not drawn) [Compound 117, 2-[(1-benzyl-3-bromo-pyridin-1-ium-4-yl)methyl]-6-methoxy-tetralin-1-one bromide], the IC50 in test [1] (setting [2]) turned out to be 20 nM; against EqBuChE (EqBuChE IC50), 447 nM.

Turning to `COc1ccc2c(c1)CCC(Cc1cc[n+](Cc3cccc(C(F)(F)F)c3)cc1C(C)=O)C2=O` (stereo not drawn) [Compound 124, 2-[[3-acetyl-1-[[3-(trifluoromethyl)phenyl]methyl]pyridin-1-ium-4-yl]methyl]-6-methoxy-tetralin-1-one bromide], the IC50 in test [1] (setting [2]) came out at 308 nM; at EqBuChE (EqBuChE IC50), 2170 nM.

On to `COc1cc2c(cc1OC)C(=O)C(Cc1cc[n+](Cc3ccccc3Cl)cc1Br)C2` (stereo not drawn) [Compound 140, 2-[[3-bromo-1-[(2-chlorophenyl)methyl]pyridin-1-ium-4-yl]methyl]-5,6-dimethoxy-indan-1-one bromide], for which the IC50 in test [1] (setting [2]) came to 0.255 nM; against EqBuChE (EqBuChE IC50), 984 nM.

Consider `CC(=O)c1c[n+](Cc2ccccc2C)ccc1CC1Cc2cc(C)c(C)cc2C1=O` (stereo not drawn) [Compound 152, 2-[[3-acetyl-1-(o-tolylmethyl)pyridin-1-ium-4-yl]methyl]-5,6-dimethyl-indan-1-one bromide], for which the IC50 in test [1] (setting [2]) was 37.7 nM; against EqBuChE (EqBuChE IC50), 262 nM.

For the compound `COc1ccc2c(c1)CCC(Cc1cc[n+](Cc3ccccc3F)cc1C(C)=O)C2=O` (stereo not drawn) [Compound 127, 2-[[3-acetyl-1-[(2-fluorophenyl)methyl]pyridin-1-ium-4-yl]methyl]-6-methoxy-tetralin-1-one bromide], the IC50 in test [1] (setting [2]) worked out at 43 nM; at EqBuChE (EqBuChE IC50) it was 489 nM.

With `COc1cc2c(cc1OC)C(=O)C(CC1C=CN(Cc3ccccc3)C=C1C(C)=O)CC2` (stereo not drawn) [Compound 162, 2-[(3-acetyl-1-benzyl-4H-pyridin-4-yl)methyl]-6,7-dimethoxy-tetralin-1-one], the figures for the IC50 (in test [1] (setting [2]); at EqBuChE (EqBuChE IC50)) were 415 nM and 3970 nM, respectively.

Turning to `COc1ccc2c(c1)CCC(Cc1cc[n+](Cc3cccc([N+](=O)[O-])c3)cc1C(C)=O)C2=O` (stereo not drawn) [Compound 123, 2-[[3-acetyl-1-[(3-nitrophenyl)methyl]pyridin-1-ium-4-yl]methyl]-6-methoxy-tetralin-1-one bromide], the IC50 in test [1] (setting [2]) stood at 78.6 nM; on EqBuChE (EqBuChE IC50), 1320 nM.

In the case of `COc1ccc2c(c1)CCC(Cc1cc[n+](Cc3cccc(Cl)c3)cc1C(C)=O)C2=O` (stereo not drawn) [Compound 122, 2-[[3-acetyl-1-[(3-chlorophenyl)methyl]pyridin-1-ium-4-yl]methyl]-6-methoxy-tetralin-1-one bromide], the IC50 in test [1] (setting [2]) stood at 71 nM; at EqBuChE (EqBuChE IC50) it was 496 nM.

As to `COc1ccc2c(c1)CCC(Cc1cc[n+](Cc3ccc(C)cc3)cc1C(C)=O)C2=O` (stereo not drawn) [Compound 130, 2-[[3-acetyl-1-(p-tolylmethyl)pyridin-1-ium-4-yl]methyl]-6-methoxy-tetralin-1-one bromide], the results for the IC50 (in test [1] (setting [2]); on EqBuChE (EqBuChE IC50)) were 556 nM and 4140 nM, respectively.

For `COc1cc2c(cc1OC)C(=O)C(Cc1cc[n+](Cc3cccc(C)c3)cc1Br)C2` (stereo not drawn) [Compound 146, 2-[[3-bromo-1-(m-tolylmethyl)pyridin-1-ium-4-yl]methyl]-5,6-dimethoxy-indan-1-one bromide], the values for the IC50 (in test [1] (setting [2]); on EqBuChE (EqBuChE IC50)) were 0.465 nM and 3860 nM, respectively.

As for `COc1ccc2c(c1)CCC(Cc1cc[n+](Cc3ccccc3[N+](=O)[O-])cc1C(C)=O)C2=O` (stereo not drawn) [Compound 125, 2-[[3-acetyl-1-[(2-nitrophenyl)methyl]pyridin-1-ium-4-yl]methyl]-6-methoxy-tetralin-1-one bromide], the IC50 amounted to 57.7 nM in test [1] (setting [2]) and 592 nM at EqBuChE (EqBuChE IC50).
